# From patent US12728099B2, “Formulation to deliver lipophilic active ingredients” (priority 2020, dated 2026)
# Read-outs that look alike come from different tables or passages of the source.
# Assays:
# [1] = Particle size by light scattering; type: physicochemical
# Method: The nanostructured PEA suspension obtained according to Example 1 was analyzed by light scattering to assess the size of the nanoparticles.
# [2] = Solubility in different dissolution media (HPLC); conditions: 25 °C, thermodynamic from solid
# [3] = Dissolution rate in 1% aqueous sodium cholate solution (HPLC); type: physicochemical; conditions: 1% w/v sodium cholate, total 30 μg/mL
# Method: Chromatogram recording was performed at 210 nm.
# [4] = cited from earlier work
# [5] = Morphology by scanning electron / optical microscopy; type: physicochemical; conditions: SEM or optical microscope
# Method: Morphologically, scanning electron microscopy (SEM) analyses of both forms were performed.
compound,measurement,setting,value
"CCCCCCCCCCCCCCCC(=O)NCCO [Raw PEA, Palmitoylethanolamide]",Size (nm ± SD),[1],Macro and microscopic flakes
same,solubility at 24 h,"[2]; demineralized water, water",< 0.1 µg/mL
same,solubility at 24 h,"[2]; phosphate buffer, pH 7.4, aqueous buffer",0.64 ± 0.05 µg/mL
same,solubility at 24 h,"[2]; simulated intestinal fluid, pH 6.8, fassgf or other biorelevant",0.22 ± 0.03 µg/mL
same,solubility at 24 h,"[2]; simulated pulmonary fluid, pH 7.4, fassgf or other biorelevant",0.8 ± 0.12 µg/mL
same,Dissolved PEA (dissolution rate),[3]; 30 min,3.31 ± 2.30 µg/mL
same,Dissolved PEA (dissolution rate),[3]; 1 hour,4.56 ± 1.02 µg/mL
same,Dissolved PEA (dissolution rate),[3]; 2 hours,6.15 ± 1.22 µg/mL
same,Dissolved PEA (dissolution rate),[3]; 4 hours,8.61 ± 0.68 µg/mL
same,Dissolved PEA (dissolution rate),[3]; 6 hours,9.31 ± 0.71 µg/mL
same,Solubility,"[4]; methanol, ethanol, and isopropyl alcohol",poorly soluble
same,Solubility,"[4]; water, oils, and most common organic solvents",practically insoluble
same,Morphology / obtainment of nanostructures,[5],irregular macroscopic agglomerates (a few tens of microns)
